The assay can be described thus: Tested for the NMDA antagonist activity using a functional assay, by protection of cultured hippocampus neurons from the toxic effects of extracellularly applied glutamate.

Drawing on BindingDB's records for doi:10.1016/S0960-894X(00)80098-0 (1993), this text covers IC50 for five molecules.

Structures are written as SMILES.

`O=C1Cc2cc(C(O)CN3CCC(Cc4ccc(F)cc4)CC3)ccc2N1` (stereo not given) [5-{2-[4-(4-Fluoro-benzyl)-piperidin-1-yl]-1-hydroxy-ethyl}-1,3-dihydro-indol-2-one] returned an IC50 of 600 nM. With `OC(CN1CCC(Cc2ccc(F)cc2)CC1)c1ccc(Cl)cc1` (stereo not given), the IC50 came to 1000 nM. Then `C[C@@H]([C@H](O)c1ccc2c(c1)CC(=O)N2)N1CCC(Cc2ccccc2)CC1` [5-[(1R,2S)-2-(4-Benzyl-piperidin-1-yl)-1-hydroxy-propyl]-1,3-dihydro-indol-2-one], with 231 nM. Then `C[C@@H]([C@@H](O)c1ccc2c(c1)CC(=O)N2)N1CCC(Cc2ccccc2)CC1` [5-[(1S,2S)-2-(4-Benzyl-piperidin-1-yl)-1-hydroxy-propyl]-1,3-dihydro-indol-2-one], with 111 nM; and `C[C@@H]([C@@H](O)c1ccc2c(c1)CC(=O)N2)N1CCC(c2ccccc2)CC1` [5-[(1S,2S)-1-Hydroxy-2-(4-phenyl-piperidin-1-yl)-propyl]-1,3-dihydro-indol-2-one], with 40 nM.
